Results as given in the supplement of paper PMC10627819.

How the values were obtained:
[1] = system: B. subtilis 168; assay: Bliss interaction score (quartile over a dose matrix) (fitness difference); higher = more antagonism (negative = synergy)
Summary of the method: (§1)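 Each OD595 reading at entry into stationary phase was scaled to the robust mean of the untreated wells on its plate, with a ceiling of 1. These ratios define fitness, and single-drug fitness was inferred from combinations. The Bliss score compares observed fitness with the product-based expectation and is reported as quartiles across all replicate types, technical, biological and donor/recipient.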

[2] = system: S. aureus DSM 20231; assay: as above
Summary of the method: as §1

[3] = system: S. aureus Newman; assay: as above
Summary of the method: as §1

[4] = system: S. pneumoniae D39V; assay: as above
Summary of the method: as §1

[5] = system: B. subtilis 168; assay: fitness (endpoint OD595 vs no drug) (fraction); higher = more growth
Summary of the method: (§2)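 Plates with 384 wells were inoculated at OD595 0.01 using 30 µl of TSB, LB Lennox or CY, or 55 µl for S. pneumoniae. Incubation was at 37 °C, with OD595 measured every 30 min for 14 h. Fitness is the stationary-phase transition optical density over the robust mean of no-drug control wells, after first-reading background subtraction; it is capped at 1.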

[6] = system: S. aureus DSM 20231; assay: as above
Summary of the method: as §2

[7] = system: S. aureus Newman; assay: as above
Summary of the method: as §2

[8] = system: S. pneumoniae D39V; assay: as above
Summary of the method: as §2
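Wherever Bliss interaction score (quartile over a dose matrix) is given: first quartile when negative (synergy) and third quartile when positive (antagonism).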

C[C@@H]1O[C@@H]1P(=O)(O)O [Fosfomycin] + COc1cc(Cc2cnc(N)nc2N)cc(OC)c1OC [Trimethoprim]
Settings | Bliss interaction score
[1] | -0.112
[2] | 0.0599
[3] | 0.0927
[4] | 0.158

fitness, [5], one replicate
Settings | partner 0.1 µg/mL | partner 0.2 µg/mL | partner 0.4 µg/mL | partner 1 µg/mL | partner 2 µg/mL
first compound 1.562 µg/mL | 0.649 | 0.564 | 0.397 | 0.17 | 0.119
first compound 3.124 µg/mL | 0.497 | 0.35 | 0.18 | 0.0628 | 0.0617
first compound 6.248 µg/mL | 0.209 | 0.101 | 0.0381 | 0.0277 | 0.0228

fitness
Settings | partner 0.125 µg/mL | partner 0.25 µg/mL | partner 0.5 µg/mL | partner 1 µg/mL
[5], first compound 1.562 µg/mL | 0.572 | 0.405 | 0.35 | –
[5], first compound 3.124 µg/mL | 0.447 | 0.369 | 0.218 | –
[5], first compound 6.248 µg/mL | 0.307 | 0.236 | 0.0904 | –
[6], first compound 0.781 µg/mL | 0.592 | 0.56 | 0.182 | 0.0323
[6], first compound 1.562 µg/mL | 0.56 | 0.484 | 0.106 | 0.0286
[6], first compound 3.124 µg/mL | 0.499 | 0.327 | 0.0645 | 0.0282

CO/N=C(\C(=O)N[C@@H]1C(=O)N2C(C(=O)O)=C(COC(C)=O)CS[C@H]12)c1csc(N)n1 [Cefotaxime] + COc1cc(Cc2cnc(N)nc2N)cc(OC)c1OC [Trimethoprim]
Settings | Bliss interaction score
[1] | 0.0814
[2] | 0.0326
[3] | -0.0597
[4] | 0.224

one replicate
Settings | fitness
[5], first compound 0.00775 µg/mL, partner 0.125 µg/mL | 0.309
[5], first compound 0.00775 µg/mL, partner 0.25 µg/mL | 0.288
[5], first compound 0.00775 µg/mL, partner 0.5 µg/mL | 0.269
[5], first compound 0.0155 µg/mL, partner 0.125 µg/mL | 0.262
[5], first compound 0.0155 µg/mL, partner 0.25 µg/mL | 0.181
[5], first compound 0.0155 µg/mL, partner 0.5 µg/mL | 0.0769
[5], first compound 0.031 µg/mL, partner 0.125 µg/mL | 0.149
[5], first compound 0.031 µg/mL, partner 0.25 µg/mL | 0.0914
[5], first compound 0.031 µg/mL, partner 0.5 µg/mL | 0.0904
[5], first compound 0.0625 µg/mL, partner 0.1 µg/mL | 0.47
[5], first compound 0.0625 µg/mL, partner 0.125 µg/mL | 0.432
[5], first compound 0.0625 µg/mL, partner 0.2 µg/mL | 0.454
[5], first compound 0.0625 µg/mL, partner 0.4 µg/mL | 0.402
[5], first compound 0.125 µg/mL, partner 0.1 µg/mL | 0.364
[5], first compound 0.125 µg/mL, partner 0.125 µg/mL | 0.345
[5], first compound 0.125 µg/mL, partner 0.2 µg/mL | 0.336
[5], first compound 0.125 µg/mL, partner 0.4 µg/mL | 0.296
[5], first compound 0.25 µg/mL, partner 0.1 µg/mL | 0.109
[5], first compound 0.25 µg/mL, partner 0.125 µg/mL | 0.274
[5], first compound 0.25 µg/mL, partner 0.2 µg/mL | 0.223
[5], first compound 0.25 µg/mL, partner 0.4 µg/mL | 0.127
[5], first compound 0.5 µg/mL, partner 1 µg/mL | 0.104
[5], first compound 0.5 µg/mL, partner 2 µg/mL | 0.129
[5], first compound 1 µg/mL, partner 1 µg/mL | 0.0524
[5], first compound 1 µg/mL, partner 2 µg/mL | 0.0575
[5], first compound 2 µg/mL, partner 1 µg/mL | 0.0669
[5], first compound 2 µg/mL, partner 2 µg/mL | 0.0449
[6], first compound 0.039 µg/mL, partner 0.125 µg/mL | 0.663
[6], first compound 0.312 µg/mL, partner 0.125 µg/mL | 0.498
[6], first compound 0.312 µg/mL, partner 0.25 µg/mL | 0.384
[6], first compound 0.312 µg/mL, partner 0.5 µg/mL | 0.0438

fitness
Settings | partner 0.125 µg/mL | partner 0.25 µg/mL | partner 0.5 µg/mL | partner 1 µg/mL
[5], first compound 0.0625 µg/mL | – | 0.386 | 0.363 | –
[5], first compound 0.125 µg/mL | – | 0.285 | 0.27 | –
[5], first compound 0.25 µg/mL | – | 0.217 | 0.19 | –
[5], first compound 0.5 µg/mL | – | – | 0.125 | –
[5], first compound 1 µg/mL | – | – | 0.108 | –
[5], first compound 2 µg/mL | – | – | 0.0672 | –
[6], first compound 0.039 µg/mL | – | 0.558 | 0.14 | 0.047
[6], first compound 0.078 µg/mL | 0.584 | 0.536 | 0.207 | 0.0436
[6], first compound 0.156 µg/mL | 0.605 | 0.57 | 0.299 | 0.0551

O=C(O)c1cn(C2CC2)c2cc(N3CCNCC3)c(F)cc2c1=O [Ciprofloxacin] + CCN(CC)CCOC(=O)c1ccc(N)cc1 [Procaine]
Settings | Bliss interaction score
[1] | -0.0792
[2] | -0.053
[3] | 0.0759
[4] | 0.0982

fitness
Settings | partner 85.5 µg/mL | partner 171 µg/mL | partner 342 µg/mL
[5], first compound 0.0098 µg/mL | 0.883 | 0.918 | 0.918
[5], first compound 0.0195 µg/mL | 0.688 | 0.755 | 0.721
[5], first compound 0.039 µg/mL | 0.0386 | 0.0363 | 0.0396
[7], first compound 0.0375 µg/mL | 0.65 | 0.644 | 0.635
[7], first compound 0.075 µg/mL | 0.658 | – | –
[8], first compound 0.125 µg/mL | ≥ 1 | ≥ 1 | ≥ 1
[8], first compound 0.25 µg/mL | 0.9 | 0.923 | 0.91

C[C@@H]1O[C@@H]1P(=O)(O)O [Fosfomycin] + CC(C1CCC(C(O1)OC2C(CC(C(C2O)OC3C(C(C(CO3)(C)O)NC)O)N)N)N)NC [Gentamicin]
main component drawn
Settings | Bliss interaction score
[1] | 0.152
[2] | -0.0757
[3] | 0.152
[4] | -0.0335

main component drawn
Settings | fitness
[5], first compound 1.562 µg/mL, partner 0.0625 µg/mL | 0.757
[5], first compound 3.124 µg/mL, partner 0.0625 µg/mL | 0.629
[7], first compound 0.781 µg/mL, partner 0.5 µg/mL | 0.705
[7], first compound 0.781 µg/mL, partner 1 µg/mL | 0.802
[7], first compound 0.781 µg/mL, partner 2 µg/mL | 0.796
[7], first compound 1.562 µg/mL, partner 0.5 µg/mL | 0.585
[7], first compound 1.562 µg/mL, partner 1 µg/mL | 0.65
[7], first compound 1.562 µg/mL, partner 2 µg/mL | 0.666
[7], first compound 3.124 µg/mL, partner 0.5 µg/mL | 0.422
[7], first compound 3.124 µg/mL, partner 1 µg/mL | 0.455
[7], first compound 3.124 µg/mL, partner 2 µg/mL | 0.464
[8], first compound 1.25 µg/mL, partner 2 µg/mL | 0.96
[8], first compound 1.25 µg/mL, partner 4 µg/mL | 0.944
[8], first compound 1.25 µg/mL, partner 8 µg/mL | 0.948
[8], first compound 2.5 µg/mL, partner 2 µg/mL | 0.941
[8], first compound 2.5 µg/mL, partner 4 µg/mL | 0.896
[8], first compound 2.5 µg/mL, partner 8 µg/mL | 0.876
[8], first compound 5 µg/mL, partner 2 µg/mL | 0.715
[8], first compound 5 µg/mL, partner 4 µg/mL | 0.674
[8], first compound 5 µg/mL, partner 8 µg/mL | 0.72

fitness, [7], one replicate, main component drawn
Settings | first compound 0.781 µg/mL | first compound 1.562 µg/mL | first compound 3.124 µg/mL
partner 0.375 µg/mL | 0.589 | 0.554 | 0.236
partner 0.75 µg/mL | 0.596 | 0.571 | 0.232
partner 1.5 µg/mL | 0.537 | 0.447 | 0.119
